# Assay results as given in US20210317145A1, “Boronic Acid Derivatives” (Merck Patent GmbH, priority 2018, published 2021).
# Legend:
# [1] = biological target: LMP7 (purified human immuno proteasome) (Homo sapiens, UniProt P20618+P28062); assay: Determination of LMP7 activity (fluorescence intensity assay, Suc-LLVY-AMC); format: biochemical; settings: for Selectivity LMP7 vs Beta5: LMP7 versus Beta5, incubation for 20 minutes; for IC50: purified human immuno proteasome 0.25 nM, incubation for 20 minutes at 25° C., Suc-LLVY-AMC 40 μM
# Protocol: Determination of LMP7 Activity:
# Measurement of LMP7 inhibition is performed in 384 well format based on fluorescence intensity assay.
# (§1) Purified human immuno proteasome (0.25 nM) and serial diluted compounds in DMSO (range of concentrations from 30 μM to […]) or controls are incubated for 20 minutes or 120 minutes (long incubation) at 25° C. in assay buffer containing 50 mM Tris pH 7.4, 0.03% SDS, 1 mM EDTA and 1% DMSO. The reaction is initiated by the addition of the fluorogenic peptide substrate, Suc-LLVY-AMC (Bachem 1-1395), at a concentration of 40 μM. After 60 minutes of incubation at 37° C., fluorescence intensity is measured at λex=350 nm and λem=450 nm with a fluorescence reader (Perkin Elmer Envision reader or equivalent).
# (§2) Unless indicated otherwise the results are obtained after incubation for 20 minutes.
# [2] = biological target: Beta5 (purified human constitutive proteasome) (Homo sapiens, UniProt P20618+P28074); assay: Determination of Beta5 activity (fluorescence intensity assay, Suc-LLVY-AMC); format: biochemical; settings: purified human constitutive proteasome 1.25 nM, incubation for 20 minutes at 25° C., Suc-LLVY-AMC 40 μM
# Protocol: Determination of Beta5 Activity:
# Measurement of Beta5 inhibition is performed in 384 well format based on fluorescence intensity assay.
# as §1, with “constitutive” for “immuno”, “(1.25” for “(0.25”
# as §2
Selectivity LMP7 vs Beta5 [1],IC50 [1],IC50 [2],Selectivity LMP7 vs Beta5 ([1]; listed as drawing 86),Selectivity LMP7 vs Beta5 ([1]; listed as drawing 87),SMILES
++ (100 ≤ Selectivity < 300),≤ 50 nM,5000 to 30000 nM,,,"CSC(C(=O)N[C@@H](Cc1coc2ccccc12)B(O)O)c1ccccc1 (single isomer, unassigned) [Compound 7]"
,≤ 50 nM,50 to 500 nM,+ (Selectivity <100),,"O=C(N[C@@H](Cc1coc2ccccc12)B(O)O)C1Cc2ccccc2O1 (single isomer, unassigned) [Compound 36]"
,≤ 50 nM,500 to 5000 nM,,+++ (300 ≤ Selectivity < 500),"O=C(N[C@@H](Cc1coc2ccccc12)B(O)O)C1Cc2ccccc2O1 (single isomer, unassigned) [Compound 37]"
++ (100 ≤ Selectivity < 300),500 to 5000 nM,5000 to 30000 nM,,,"CSCC(=O)N[C@H](Cc1coc2c(C)cccc12)B(O)O [Compound 1, [(1S)-2-(7-methylbenzo-furan-3-yl)-1-[(2-methyl-sulfanylacetyl)amino]-ethyl]boronic acid]"
+++ (300 ≤ Selectivity < 500),≤ 50 nM,500 to 5000 nM,,,"CSCC(=O)N[C@@H](Cc1coc2c(C(F)(F)F)cccc12)B(O)O [Compound 3, [(1R)-1-[(2-methyl-sulfanylacetyl)amino]-2-[7-(trifluoromethyl)-benzofuran-3-yl]ethyl]-boronic acid]"
+ (Selectivity <100),500 to 5000 nM,5000 to 30000 nM,,,"COc1cccc2occ(C[C@H](NC(=O)CSC)B(O)O)c12 [Compound 4, [(1R)-2-(4-methoxy-benzofuran-3-yl)-1-[(2-methylsulfanylacetyl)-amino]ethyl]boronic acid]"
+++ (300 ≤ Selectivity < 500),≤ 50 nM,500 to 5000 nM,,,"CSCC(=O)N[C@@H](C[C@@H]1COc2ccccc21)B(O)O [Compound 5, [(1R)-2-[(3S)-2,3-dihydrobenzofuran-3-yl]-1-[(2-methylsulfan-ylacetyl)amino]ethyl]-boronic acid]"
++ (100 ≤ Selectivity < 300),≤ 50 nM,50 to 500 nM,,,"CSCC(=O)N[C@@H](Cc1coc2c(C)cccc12)B(O)O [Compound 6, [(1R)-2-(7-methylbenzo-furan-3-yl)-1-[(2-methyl-sulfanylacetyl)amino]-ethyl]boronic acid]"
++ (100 ≤ Selectivity < 300),≤ 50 nM,500 to 5000 nM,,,"O=C(N[C@@H](Cc1coc2ccccc12)B(O)O)C1SCCS1 [Compound 8, [(1R)-2-(benzofuran-3-yl)-1-(1,3-dithiolane-2-carbonylamino)ethyl]-boronic acid]"
++ (100 ≤ Selectivity < 300),≤ 50 nM,500 to 5000 nM,,,"CSCC(=O)NC(Cc1coc2c(F)cccc12)B(O)O (stereo not drawn) [Compound 9, [2-(7-fluorobenzofuran-3-yl)-1-[(2-methyl-sulfanylacetyl)amino]-ethyl]boronic acid]"
++++ (Selectivity ≥ 500),≤ 50 nM,5000 to 30000 nM,,,"CSCC(=O)N[C@@H](CC1COc2c(C)cccc21)B(O)O (stereo partly drawn) [Compound 10, [(1R)-2-(7-methyl-2,3-dihydrobenzofuran-3-yl)-1-[(2-methyl-sulfanylacetyl)amino]-ethyl]boronic acid]"
++ (100 ≤ Selectivity < 300),≤ 50 nM,50 to 500 nM,,,"O=C(N[C@@H](Cc1coc2ccccc12)B(O)O)C1OCCS1 (stereo partly drawn) [Compound 11, [(1R)-2-(benzofuran-3-yl)-1-(1,3-oxathiolane-2-carbonylamino)ethyl]-boronic acid]"
++ (100 ≤ Selectivity < 300),≤ 50 nM,50 to 500 nM,,,"CSCC(=O)N[C@@H](Cc1coc2c(F)cccc12)B(O)O [Compound 12, [(1R)-2-(7-fluorobenzo-furan-3-yl)-1-[(2-methyl-sulfanylacetyl)amino]-ethyl]boronic acid]"
+++ (300 ≤ Selectivity < 500),≤ 50 nM,500 to 5000 nM,,,"CCSCC(=O)N[C@@H](Cc1coc2ccccc12)B(O)O [Compound 13, [(1R)-2-(benzofuran-3-yl)-1-[(2-ethylsulfanyl-acetyl)amino]ethyl]-boronic acid]"
+++ (300 ≤ Selectivity < 500),≤ 50 nM,500 to 5000 nM,,,"CSCC(=O)N[C@@H](Cc1coc2c(C)c(Cl)ccc12)B(O)O [Compound 14, [(1R)-2-(6-chloro-7-methylbenzofuran-3-yl)-1-[(2-methyl-sulfanylacetyl)amino]-ethyl]boronic acid]"
+ (Selectivity <100),≤ 50 nM,50 to 500 nM,,,"O=C(CSCCCO)N[C@@H](Cc1coc2ccccc12)B(O)O [Compound 15, [(1R)-2-(benzofuran-3-yl)-1-[[2(3-hydroxy-propylsulfanyl)acetyl]-amino]ethyl]boronic acid]"
++ (100 ≤ Selectivity < 300),≤ 50 nM,50 to 500 nM,,,"CSCC(=O)N[C@@H](Cc1coc2c(Cl)cccc12)B(O)O [Compound 16, [(1R)-2-(7-chlorobenzo-furan-3-yl)-1-[(2-methylsulfanylacetyl)-amino]ethyl]boronic acid]"
++ (100 ≤ Selectivity < 300),≤ 50 nM,5000 to 30000 nM,,,"O=C(N[C@@H](Cc1coc2ccccc12)B(O)O)C1CCCS1 (stereo partly drawn) [Compound 17, [(1R)-2-(benzofuran-3-yl)-1-(tetrahydrothio-phene-2-carbonyl-amino)ethyl]boronic acid]"
++++ (Selectivity ≥ 500),≤ 50 nM,5000 to 30000 nM,,,"CSCC(=O)NC(CC1COc2ccccc21)B(O)O (stereo not drawn) [Compound 19, [2-(2,3-dihydrobenzo-furan-3-yl)-1-[(2-methylsulfanylacetyl)-amino]ethyl]boronic acid]"
+++ (300 ≤ Selectivity < 500),≤ 50 nM,500 to 5000 nM,,,"CSCC(=O)NC(Cc1coc2c(C)c(Cl)ccc12)B(O)O (stereo not drawn) [Compound 20, [2-(6-chloro-7-methyl-benzofuran-3-yl)-1-[(2-methylsulfanylacetyl)-amino]ethyl]boronic acid]"
++ (100 ≤ Selectivity < 300),≤ 50 nM,500 to 5000 nM,,,"CSCC(=O)N[C@@H](Cc1ccc(C)cc1C)B(O)O [Compound 21, [(1R)-2-(2,4-dimethyl-phenyl)-1-[(2-methyl-sulfanylacetyl)amino]-ethyl]boronic acid]"
++ (100 ≤ Selectivity < 300),≤ 50 nM,500 to 5000 nM,,,"CSCC(=O)N[C@@H](Cc1coc2ccccc12)B(O)O [Compound 22, [(1R)-2-(benzofuran-3-yl)-1-[(2-methyl-sulfanylacetyl)-amino]ethyl]boronic acid]"
++ (100 ≤ Selectivity < 300),50 to 500 nM,5000 to 30000 nM,,,CSCC(=O)N[C@H](Cc1coc2c(F)cccc12)B(O)O [Compound 23]
++ (100 ≤ Selectivity < 300),≤ 50 nM,500 to 5000 nM,,,"O=C(CCO)N[C@@H](Cc1coc2ccccc12)B(O)O [Compound 24, [(1R)-2-(benzofuran-3-yl)-1-(3-hydroxypro-panoylamino)ethyl]-boronic acid]"
